# Laboratory results taken from patent US20250163057A1, “DCN-1 MODULATING COMPOUNDS AND METHODS OF USE THEREOF” (Cellarity, Inc., priority 2023, published 2025).
# Columns and labels:
# [1] = system: Cullin-3 (CUL3) neddylation; experiment: AlphaLISA assay for Cullin-3 (CUL3) neddylation in TF 1 cells; type: cell-based; conditions: 3 hours treatment
# Outline: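 Neddylated CUL3 was quantified by AlphaLISA in lysates of TF 1 cells exposed for 3 h to test compound in IMDM without supplements. Percent inhibition set between vehicle and 1 μM DI-1548 positive control; IC50 derived by Hill-equation fitting of dose-response curves.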
# [2] = system: fetal hemoglobin gene HBG1; experiment: HBG1 Nanostring Assay in CD34+ HSPC erythroid differentiation culture; type: cell-based, human; conditions: for EC50: HBG1 induction, Day10 of erythroid differentiation; for Nanostring Ymax obs (%): relative to a control compound (C1)
# Outline: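 HBG1 counts came from direct nCounter hybridization (67° C, 22 h) of day-10 lysates, normalized to ERCC positive controls and a housekeeping gene, giving EC50 and Ymax versus a reference compound. Compounds in 0.1% DMSO were present from day −2 while cells underwent EPO/SCF/IL-3 erythroid differentiation, with IL-3 dropped at day 7, at 37° C.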
Structure (SMILES),"IC50 ([1]; Homo sapiens, TF-1, 3 h)","EC50 ([2]; Homo sapiens, 240 h)",Nanostring Ymax obs (%) [2],IC50 [1],EC50 [2]
"CCN1C(=O)[C@@H](NC(=O)c2cccc(C(F)(F)F)c2)[C@@H](C2CC2)c2c(C(=O)N3[C@H](C#N)C[C@H]4C[C@H]43)nn(C3CCOCC3)c21 [Compound I-256, N-((4S,5S)-3-((1R,3S,5R)-3-cyano-2-azabicyclo[3.1.0]hexane-2-carbonyl)-4-cyclopropyl-7-ethyl-6-oxo-1-(tetrahydro-2H-pyran-4-yl)-4,5,6,7-tetrahydro-1H-pyrazolo[3,4-b]pyridin-5-yl)-3-(trifluoromethyl)benzamide]",≤ 100 nM,≤ 100 nM,+++ (Nanostring Ymax greater than 100.0),,
CCN1C(=O)[C@@H](NC(=O)c2cccc(C(F)(F)F)c2)[C@@H](C2CC2)c2c(C(=O)N3C[C@H](F)C[C@H]3C#N)nn(C3CCOCC3)c21 [Compound I-372],≤ 100 nM,100 to 1000 nM,++ (Nanostring Ymax greater than 50.0 and less than or equal to 100.0),,
"CCN1C(=O)[C@@H](NC(=O)c2cccc(C(F)(F)F)c2)[C@@H](c2ccc(F)cc2)c2c([C@@H](C)NC#N)nn(-c3ccccc3)c21 [Compound I-73, N-((4S,5S)-3-((R)-1-cyanamidoethyl)-7-ethyl-4-(4-fluorophenyl)-6-oxo-1-phenyl-4,5,6,7-tetrahydro-1H-pyrazolo[3,4-b]pyridin-5-yl)-3-(trifluoromethyl)benzamide]",≤ 100 nM,≤ 100 nM,++ (Nanostring Ymax greater than 50.0 and less than or equal to 100.0),,
CCN1C(=O)[C@@H](NC(=O)c2cccc(C(F)(F)F)c2)[C@@H](C2CC2)c2c(C(=O)N3CCNC[C@H]3C#N)nn(C3CCOCC3)c21 [Compound I-582],≤ 100 nM,100 to 1000 nM,+++ (Nanostring Ymax greater than 100.0),,
CCN1C(=O)[C@@H](NC(=O)c2cccc(C(F)(F)F)c2)[C@@H](c2ccc(F)cc2)c2c(CNC(=O)/C=C/C(=O)OC)nn(-c3ccccc3)c21 (racemic) [Compound I-3],≤ 100 nM,≤ 100 nM,+++ (Nanostring Ymax greater than 100.0),,
CCN1C(=O)[C@@H](NC(=O)c2cccc(C(F)(F)F)c2)[C@@H](c2ccc(F)cc2)c2c(C(=O)N3[C@H](C#N)C[C@H]4C[C@H]43)nn(-c3ccccc3)c21 [Compound I-277],≤ 100 nM,≤ 100 nM,+++ (Nanostring Ymax greater than 100.0),,
CCN1C(=O)[C@@H](NC(=O)c2cccc(C(F)(F)F)c2)[C@@H](c2ccc(F)cc2)c2c(C(=O)NC3(C#N)CC3)nn(-c3ccccc3)c21 [Compound I-112],100 to 1000 nM,100 to 1000 nM,+++ (Nanostring Ymax greater than 100.0),,
"CCN1C(=O)[C@@H](NC(=O)c2cccc(C(F)(F)F)c2)[C@@H](c2ccc(F)cc2)c2c(CNC#N)nn(-c3ccccc3)c21 [Compound I-140, N-[(4S, 5S)-3-[(cyanoamino)methyl]-7-ethyl-4-(4-fluorophenyl)-6-oxo-1-phenyl-4,5-dihydropyrazolo[3,4-b]pyridine-5-yl]-3-(trifluoromethyl) benzamide]",≤ 100 nM,100 to 1000 nM,++ (Nanostring Ymax greater than 50.0 and less than or equal to 100.0),,
CCN1C(=O)[C@@H](NC(=O)c2cccc(C(F)(F)F)c2)[C@@H](C2CC2)c2c(C(=O)N3C[C@H](OC)C[C@H]3C#N)nn(C3CCOCC3)c21 [Compound I-377],≤ 100 nM,≤ 100 nM,+++ (Nanostring Ymax greater than 100.0),,
CCN1C(=O)[C@@H](NC(=O)c2cccc(C(F)(F)F)c2)[C@@H](C2CC2)c2c(C(=O)N3CCS(=O)(=O)C[C@H]3C#N)nn(C3CCOCC3)c21 (mixture of isomers) [Compound I-379],≤ 100 nM,≤ 100 nM,+++ (Nanostring Ymax greater than 100.0),,
"CCN1C(=O)[C@@H](NC(=O)c2cccc(C(F)(F)F)c2)[C@@H](c2ccc(F)cc2)c2c(C(=O)N3CS(=O)(=O)C[C@H]3C#N)nn(C3CCOCC3)c21 (mixture of isomers) [Compound I-661, N-((4S,5S)-3-(4-cyano-1,1-dioxidothiazolidine-3-carbonyl)-7-ethyl-4-(4-fluorophenyl)-6-oxo-1-(tetrahydro-2H-pyran-4-yl)-4,5,6,7-tetrahydro-1H-pyrazolo[3,4-b]pyridin-5-yl)-3-(trifluoromethyl)benzamide]",≤ 100 nM,≤ 100 nM,++ (Nanostring Ymax greater than 50.0 and less than or equal to 100.0),,
CCN1C(=O)[C@@H](NC(=O)c2cccc(C(F)(F)F)c2)[C@@H](C2CC2)c2c(C(=O)N3CCNC[C@H]3C#N)nn(-c3ccccc3)c21 [Compound I-383],≤ 100 nM,≤ 100 nM,++ (Nanostring Ymax greater than 50.0 and less than or equal to 100.0),,
CCN1C(=O)[C@@H](NC(=O)c2cccc(C(F)(F)F)c2)[C@@H](c2ccc(F)cc2)c2c(C(=O)N(C)[C@H](C#N)CCN(C)C)nn(C3CCOCC3)c21 [Compound I-370],≤ 100 nM,≤ 100 nM,+++ (Nanostring Ymax greater than 100.0),,
CCN1C(=O)[C@@H](NC(=O)c2cccc(C(F)(F)F)c2)[C@@H](C2CC2)c2c(C(=O)N(C)[C@H](C)C#N)nn(C3CCOCC3)c21 [Compound I-422],≤ 100 nM,100 to 1000 nM,+++ (Nanostring Ymax greater than 100.0),,
CCN1C(=O)[C@@H](NC(=O)c2cccc(C(F)(F)F)c2)[C@@H](C2CCC2)c2c(C(=O)N3CCC[C@H]3C#N)nn(C3CCOCC3)c21 [Compound I-692],≤ 100 nM,≤ 100 nM,+++ (Nanostring Ymax greater than 100.0),,
C=C(CN1CCC1)C(=O)NCc1nn(-c2ccccc2)c2c1[C@@H](c1ccc(F)cc1)[C@H](NC(=O)c1cccc(C(F)(F)F)c1)C(=O)N2CC [Compound I-139],≤ 100 nM,,++ (Nanostring Ymax greater than 50.0 and less than or equal to 100.0),,
CCN1C(=O)[C@@H](NC(=O)c2cccc(C(F)(F)F)c2)[C@@H](C2CC2)c2c(C(=O)N3CC[C@H](OC)[C@H]3C#N)nn(C3CCOCC3)c21 [Compound I-418],≤ 100 nM,≤ 100 nM,+++ (Nanostring Ymax greater than 100.0),,
CCN1C(=O)[C@@H](NC(=O)c2cccc(C(F)(F)F)c2)[C@@H](C)c2c(C(=O)N3[C@H](C#N)C[C@H]4C[C@H]43)nn(C3CCOCC3)c21 [Compound I-387],,,+++ (Nanostring Ymax greater than 100.0),≤ 100 nM,≤ 100 nM
CCN1C(=O)[C@@H](NC(=O)c2cccc(C(F)(F)F)c2)[C@@H](C2CC2)c2c(C(=O)N3CS(=O)(=O)C[C@H]3C#N)nn(C3CCOCC3)c21 [Compound I-617],≤ 100 nM,,+ (Nanostring Ymax greater than or equal to 0.0 and less than or equal to 50.0),,
CCN1C(=O)[C@@H](NC(=O)c2cccc(C(F)(F)F)c2)[C@@H](c2ccc(F)cc2)c2c(C(=O)N3CCNCC3C#N)nn(C3CCOCC3)c21 (stereo partly shown) [Compound I-334],≤ 100 nM,≤ 100 nM,+++ (Nanostring Ymax greater than 100.0),,
